# Measured values from ChEMBL document CHEMBL1134144, “Macrocyclization in the design of a conformationally constrained Grb2 SH2 domain inhibitor” (Bioorg Med Chem Lett, 2001).
# Target: Growth factor receptor-bound protein 2 (Homo sapiens, UniProt P62993)
# Assay: Inhibition of Growth factor receptor bound protein 2 SH2 domain binding in ELISA
row,IC50 [nM],SMILES
1,2000,NC(=O)C[C@H](NC(=O)C1(NC(=O)CCc2ccc(CP(=O)(O)O)cc2)CCCCC1)C(=O)NCCCc1cccc2ccccc12
2,20,NC(=O)C[C@@H]1NC(=O)C2(CCCCC2)NC(=O)C[C@@H](c2ccc(CP(=O)(O)O)cc2)/C=C/C[C@@H](Cc2cccc3ccccc23)CNC1=O
3,20,NC(=O)C[C@H](NC(=O)C1(NC(=O)[C@H](Cc2ccc(CP(=O)(O)O)cc2)NC(=O)C(=O)O)CCCCC1)C(=O)NCCCc1cccc2ccccc12
4,55,CC(=O)N[C@@H](Cc1ccc(CP(=O)(O)O)cc1)C(=O)NC1(C(=O)N[C@@H](CC(N)=O)C(=O)NCCCc2cccc3ccccc23)CCCCC1
